Measured values from patent publication EP2072037A1, “Hair dyeing compositions” (Farmen International Cosmetics Distribution S.p.A, priority 2007, dated 2009).

Tested on: HaCaT cells
Experiment: MTT cytotoxicity assay on human keratinocytes (skin irritation potential)
Format: cell-based
Settings: two hours
Excerpt: To evaluate the skin irritation potential of compositions C and D (containing paraphenyldiamine) illustrated in example 1, an in vitro test was used, consisting of a cytotoxicity assay performed on a line of human keratinocytes (transformed human keratinocytes, HaCaT cells) that maintain full epidermal differentiation capability.
In this case, the goal of the test was to determine the effects of compositions C and D illustrated in Example 1 on the proliferation of keratinocytes through the cell vitality test, indirectly measured by MTT staining (Mossnam T, […], J. Immunol. Methods, 65:55-63).
The specimen comprising composition C or D was previously mixed with oxidant cream in the proportion 1:1.5 and left to act for 15 minutes. […]
The cells were treated for two hours to simulate the conditions of use of the dye. At the end of the two hours, the cells were subjected to the MTT test.
From this value, the irritant potential of composition C and composition D can be estimated. Negative control comprised no treatment, whereas the surfactant sodium lauryl sulphate (SLS), whose cytotoxicity is well known, was used as positive control. Each experiment was done in triplicate, on cells plated 24 hours previously.

## CCCCCCCCCCCCOS(=O)(=O)[O-].[Na+] [SLS, sodium lauryl sulphate]
Dose 0.03 mg/mL
  Cell vitality % (versus negative control): 101.5%
Dose 0.06 mg/mL
  Cell vitality % (versus negative control): 109.7%
Dose 0.12 mg/mL
  Cell vitality % (versus negative control): 74.0%
Dose 0.25 mg/mL
  Cell vitality % (versus negative control): 3.4%
Dose 0.5 mg/mL
  Cell vitality % (versus negative control): 3.1%
Homo sapiens, 2 h, concentration reducing cell vitality by 50% versus untreated cells, theoretical value from regression curve, MTT
  IC50: 148 µg/mL
